EC50, Residual secretion and IC50 data for 30 compounds are collected here from ChEMBL document CHEMBL1141185, “4,6-Disubstituted 2,2-dimethylchromans structurally related to the K(ATP) channel opener cromakalim: design, synthesis, and effect on insulin release and vascular tone” (J Med Chem, 2005).

Format in all cases: functional
The species named for test [1] is Rattus norvegicus. As to the kind of experiment: Myorelaxant activity of the compound against insulin secretion in the pancreatic islets ofrat; (activity expressed as ED50). The settings on record: read-out: ED50 (the source's name).
For test [2], the species on record is Rattus norvegicus. Put plainly: Percentage of residual insulin secretion value in the pancreatic islets of rat after treatment with the compound at 10 uM concentration.
Test [3] is filed under the species Rattus norvegicus. Put plainly: Inhibitory concentration against rat vascular smooth muscle tissue.
The species named for test [4] is Rattus norvegicus. Put plainly: Myorelaxant effect on 30 mM KCl induced rat aorta rings determined after incubated with the 1 uM glibenclamide in the medium; (activity expressed as ED50). The settings on record: read-out: ED50 (the source's name).
The species named for test [5] is Rattus norvegicus. As to the kind of experiment: Myorelaxant effect on 80 mM KCl induced rat aorta rings determined; (activity expressed as ED50). The settings on record: read-out: ED50 (the source's name).
Test [6] is filed under the species Rattus norvegicus. Put plainly: Myorelaxant effect on 30 mM KCl induced rat aorta rings determined after incubated with the 10 uM glibenclamide in the medium; (activity expressed as ED50). The settings on record: read-out: ED50 (the source's name).
For test [7], the species on record is Rattus norvegicus. As to the kind of experiment: Myorelaxant effect on 30 mM KCl induced rat aorta rings determined; (activity expressed as ED50). The settings on record: read-out: ED50 (the source's name).
The species entered for test [8] is Rattus norvegicus. Put plainly: Myorelaxant effect of the compound on 80 mM KCl induced rat aorta rings determined; (activity expressed as ED50). The settings on record: read-out: ED50 (the source's name).
The species named for test [9] is Rattus norvegicus. Put plainly: Myorelaxant effect of the compound on 30 mM KCl induced rat aorta rings determined after incubated with the 1 uM glibenclamide in the medium; (activity expressed as ED50). As to conditions: read-out: ED50 (the source's name).
The species named for test [10] is Rattus norvegicus. Put plainly: Myorelaxant effect of the compound on 30 mM KCl induced rat aorta rings determined after incubated with the 10 uM glibenclamide in the medium; (activity expressed as ED50). As to conditions: read-out: ED50 (the source's name).
For test [11], the species on record is Rattus norvegicus. As to the kind of experiment: Myorelaxant effect of the compound on 30 mM KCl induced rat aorta rings determined after incubated with the 0 uM glibenclamide in the medium; (activity expressed as ED50). As to conditions: read-out: ED50 (the source's name).

In general, IC50 refers to the concentration that inhibits the measured activity by half.

For the compound `CC1(C)CC(NC(=O)NCc2ccccc2)c2cc(Br)ccc2O1` (stereo not given), the EC50 in the test listed under Rattus norvegicus [1] is above 300 µM. Moreover, in the test filed under Rattus norvegicus [2], the Residual secretion is 58.5%.

For `CCOC(=O)NC1CC(C)(C)Oc2ccc(Br)cc21` (stereo not given), the EC50 in the test listed under Rattus norvegicus [1] was 25.7 µM. In addition, in the test listed under Rattus norvegicus [2], the Residual secretion is reported as 88.8%.

`CC1(C)CC(NC(=O)NS(=O)(=O)c2ccc(Cl)cc2)c2cc(Cl)ccc2O1` (stereo not given): the EC50 in the test filed under Rattus norvegicus [1] was 51 µM. In the test listed under Rattus norvegicus [2], this compound returned a Residual secretion of 89.2%.

`CC1=Nc2ccc(Cl)cc2S(=O)(=O)N1` [DIAZOXIDE] displayed an IC50 in the test filed under Rattus norvegicus [3] of 23.8 µM. In addition, in the test filed under Rattus norvegicus [1], the EC50 was determined as 23.8 µM. Also, the Residual secretion in the test listed under Rattus norvegicus [2] is 71.7%.

For the compound `CC(C)NC(=O)NC1CC(C)(C)Oc2ccc(F)cc21` (stereo not given), the EC50 in the test listed under Rattus norvegicus [1] is 109 µM. Further, in the test filed under Rattus norvegicus [2], the Residual secretion is given as 98.4%.

`CCNC(=S)NC1CC(C)(C)Oc2ccc(Br)cc21` (stereo not given): the EC50 in the test listed under Rattus norvegicus [1] stood at 3.7 µM. This compound also gave a Residual secretion in the test filed under Rattus norvegicus [2] of 80.8%.

Consider `Cc1ccc(S(=O)(=O)NC(=O)NC2CC(C)(C)Oc3ccc(Cl)cc32)cc1` (stereo not given), for which the EC50 in the test filed under Rattus norvegicus [1] was 63.6 µM. Further, the Residual secretion in the test filed under Rattus norvegicus [2] amounted to 103.5%.

As to `CC(C)NC(=S)NC1CC(C)(C)Oc2ccc(Cl)cc21` (stereo not given), the EC50 in the test listed under Rattus norvegicus [1] was determined as 10.9 µM. In the test listed under Rattus norvegicus [2], the Residual secretion was found to be 83.3%.

In the case of `CC1(C)CC(NC(=S)NCc2ccccc2)c2cc(Cl)ccc2O1` (stereo not given), the EC50 in the test filed under Rattus norvegicus [1] came to 20.2 µM. The compound further yielded a Residual secretion in the test filed under Rattus norvegicus [2] of 45.4%.

Regarding `CC(C)NC(=S)NC1CC(C)(C)Oc2ccc(Br)cc21` (stereo not given), the EC50 in the test listed under Rattus norvegicus [1] worked out at 8.7 µM. The same compound displayed a Residual secretion in the test filed under Rattus norvegicus [2] of 58.9%.

With `CCNC(=O)NC1CC(C)(C)Oc2ccc(Br)cc21` (stereo not given), the EC50 in the test listed under Rattus norvegicus [1] was found to be 7.6 µM. In the test filed under Rattus norvegicus [2], this compound displayed a Residual secretion of 91.5%.

For `CC(C)NC(=O)NC1CC(C)(C)Oc2ccc(Br)cc21` (stereo not given), in the test filed under Rattus norvegicus [1], the EC50 is above 300 µM. In the test filed under Rattus norvegicus [2], this compound registered a Residual secretion of 79.1%.

Turning to `CCOC(=O)NC1CC(C)(C)Oc2ccc(Cl)cc21` (stereo not given), the EC50 in the test listed under Rattus norvegicus [1] was 38.5 µM. This compound also displayed a Residual secretion in the test listed under Rattus norvegicus [2] of 83.3%.

Turning to `CC1(C)CC(NC(=S)NCc2ccccc2)c2cc(Br)ccc2O1` (stereo not given), the EC50 in the test filed under Rattus norvegicus [1] came out at 24.8 µM. The compound further had a Residual secretion in the test listed under Rattus norvegicus [2] of 51.8%.

Turning to `CC(C)NC(=O)NC1CC(C)(C)Oc2ccc(Cl)cc21` (stereo not given), in the test listed under Rattus norvegicus [1], the EC50 is 144 µM. This compound yielded a Residual secretion in the test listed under Rattus norvegicus [2] of 86.3%.

As to `CC(=O)NC1CC(C)(C)Oc2ccc(Cl)cc21` (stereo not given), the EC50 in the test listed under Rattus norvegicus [4] is 33.8 µM; in the test filed under Rattus norvegicus [5], 84.2 µM; in the test listed under Rattus norvegicus [1], 6.6 µM; in the test listed under Rattus norvegicus [6] it was 44.6 µM; in the test listed under Rattus norvegicus [7], 6.3 µM. The Residual secretion in the test filed under Rattus norvegicus [2] is given as 100.8%.

In the test filed under Rattus norvegicus [2], `CC1(C)CC(NC(=O)NCc2ccccc2)c2cc(F)ccc2O1` (stereo not given) showed a Residual secretion of 80.8%.

Take `CC(C)NC(=S)NC1CC(C)(C)Oc2ccc(F)cc21` (stereo not given): in the test filed under Rattus norvegicus [1], the EC50 was found to be 18.5 µM. Further, the Residual secretion in the test filed under Rattus norvegicus [2] is given as 88.7%.

`CC1(C)Oc2ccc(C#N)cc2C(N2CCCC2=O)C1O` (stereo not given) [CROMAKALIM] showed an IC50 in the test listed under Rattus norvegicus [3] of 0.13 µM. Further, the EC50 in the test filed under Rattus norvegicus [8] is above 300 µM; in the test filed under Rattus norvegicus [9], 1.8 µM; in the test listed under Rattus norvegicus [1] it was 0.13 µM; in the test listed under Rattus norvegicus [10], 15.2 µM; in the test listed under Rattus norvegicus [11], 0.14 µM. The same compound came in with a Residual secretion in the test filed under Rattus norvegicus [2] of 94.7%.

In the case of `CCNC(=S)NC1CC(C)(C)Oc2ccc(F)cc21` (stereo not given), the EC50 in the test filed under Rattus norvegicus [1] turned out to be 17.6 µM. The Residual secretion in the test filed under Rattus norvegicus [2] came to 82.5%.

As for `CC(=O)NC1CC(C)(C)Oc2ccc(F)cc21` (stereo not given), the EC50 in the test listed under Rattus norvegicus [1] amounted to 46.5 µM. This compound also displayed a Residual secretion in the test listed under Rattus norvegicus [2] of 83.8%.

Regarding `CCNC(=O)NC1CC(C)(C)Oc2ccc(F)cc21` (stereo not given), the EC50 in the test filed under Rattus norvegicus [1] turned out to be 42.9 µM. The compound also showed a Residual secretion in the test listed under Rattus norvegicus [2] of 106.2%.

For the compound `CC1(C)CC(NC(=O)NS(=O)(=O)c2ccccc2)c2cc(Cl)ccc2O1` (stereo not given), the EC50 in the test filed under Rattus norvegicus [1] is 210 µM. Besides, the Residual secretion in the test filed under Rattus norvegicus [2] was 94.7%.

Take `CC(N/C(=N\C#N)Nc1ccncc1)C(C)(C)C` (stereo not given) [PINACIDIL ANHYDROUS]: in the test filed under Rattus norvegicus [3], the half-inhibitory concentration (IC50) amounted to 0.35 µM. In addition, the EC50 in the test filed under Rattus norvegicus [1] was determined as 0.35 µM. In the test filed under Rattus norvegicus [2], the Residual secretion was 96%.

For the compound `CCOC(=O)NC1CC(C)(C)Oc2ccc(F)cc21` (stereo not given), the EC50 in the test filed under Rattus norvegicus [1] was determined as 72.4 µM. In the test listed under Rattus norvegicus [2], the Residual secretion came out at 100.8%.

For `CC1(C)CC(NC(=O)NCc2ccccc2)c2cc(Cl)ccc2O1` (stereo not given), the EC50 in the test listed under Rattus norvegicus [1] was found to be 15.3 µM. In the test listed under Rattus norvegicus [2], the Residual secretion stood at 67.1%.

On to `CC(=O)NC1CC(C)(C)Oc2ccc(Br)cc21` (stereo not given), for which the EC50 in the test filed under Rattus norvegicus [1] was 6.4 µM. The same compound yielded a Residual secretion in the test filed under Rattus norvegicus [2] of 94.2%.

For `CCNC(=O)NC1CC(C)(C)Oc2ccc(Cl)cc21` (stereo not given), the EC50 in the test listed under Rattus norvegicus [1] stood at 6.8 µM. In the test listed under Rattus norvegicus [2], the Residual secretion amounted to 89.5%.

For `CC1(C)CC(NC(=S)NCc2ccccc2)c2cc(F)ccc2O1` (stereo not given), the EC50 in the test listed under Rattus norvegicus [1] worked out at 4.3 µM. This compound also displayed a Residual secretion in the test filed under Rattus norvegicus [2] of 54.4%.

With `CCNC(=S)NC1CC(C)(C)Oc2ccc(Cl)cc21` (stereo not given), the EC50 in the test listed under Rattus norvegicus [1] came out at 8.2 µM. Further, the Residual secretion in the test listed under Rattus norvegicus [2] is 96.5%.
